According to paper PMC9919730, “A Versatile Continuous Fluorometric Enzymatic Assay for Targeting Nicotinate Phosphoribosyltransferase” (Molecules, 2023):
“Also recorded” adds a separate entry of the source. Where two headings read alike, the source gives them in different places. Values belong to the molecule of their own block, whether it stands above or below them.

Experiments:
[1] = tested on: OVCAR-5 cells; experiment: Cell viability, sulforhodamine B assay, with or without FK866; type: cell-based; conditions: for Sensitization of cells to FK866 (cell viability in combination): 200 µM compound with FK866 0 to 100 nM; for Combination index (CI): CompuSyn; for viability at 200 µM: Homo sapiens, OVCAR-5, 200 µM compound with 3 nM FK866, 72 h
Protocol: The OVCAR-5 cell line was obtained from the NCI-60 panel. Cells were seeded in 96-well plates (3 × 10^3 cells/well) and were treated with the selected compounds at a 200 µM final concentration or with 0.2% DMSO the day after, in combination with increasing concentrations of FK866, ranging from 0 to 100 nM. Treated cells were incubated at 37 °C and 5% CO2 for 72 h. At the end of the treatment, trichloroacetic acid (TCA) (10% final concentration) was added to each well. After 20 min at 4 °C, the wells were washed 4 times with tap water to remove TCA, and they were let to dry. Cell viability was evaluated with the sulforhodamine B assay, as previously described.

[2] = tested on: OVCAR-5 cells; experiment: Intracellular NAD+ levels measurement (cycling assay); type: cell-based; conditions: for Effect on NAD+ levels combined with FK866: 200 µM compound with 3 nM FK866, 24 h; for NAD levels: 200 µM compound with 3 nM FK866, after 72 h of incubation as printed
Protocol: The compounds were prepared as described above. OVCAR-5 cells were seeded in a 12-well plate (1 × 10^5/well). The day after, cells were treated with combinations of each selected compound (200 µM, final concentration) and FK866 (3 nM, final concentration) and were incubated at 37 °C and 5% CO2. […] Cell lysates were subsequently collected, transferred to new tubes, and diluted in 100 mM Na2HPO4 at pH 8. To determine the amount of NAD^+, we utilized a sensitive cyclic assay that takes advantage of the enzymatic activity of ADH [23]. Briefly, 0.1 mL of the cycling reagent (2% (v/v) ethanol, 100 μg/mL ADH, 20 μM resazurin, 5 μg/mL diaphorase, 10 μM FMN, 10 mM nicotinamide, and 100 mM sodium phosphate, pH 8.0) were added to each well, containing 0.1 mL of each diluted sample. The increase in resorufin fluorescence (544 nm excitation, 590 nm emission) was measured every min over a 2 h period using a fluorescence plate reader (Fluostar Optima, BMG Labtechnologies GmbH, Offenburg, Germany). A NAD^+ standard curve was always run in parallel in each assay.

[3] = molecular target: T1, human recombinant NAPRT (Homo sapiens, UniProt Q6XQN6); experiment: Continuous coupled fluorometric NADH assay of NAPRT activity; conditions: for Inhibitory activity against NAPRT (in words): screening at 0.5 mM
T1 sequence (Q6XQN6 1-538): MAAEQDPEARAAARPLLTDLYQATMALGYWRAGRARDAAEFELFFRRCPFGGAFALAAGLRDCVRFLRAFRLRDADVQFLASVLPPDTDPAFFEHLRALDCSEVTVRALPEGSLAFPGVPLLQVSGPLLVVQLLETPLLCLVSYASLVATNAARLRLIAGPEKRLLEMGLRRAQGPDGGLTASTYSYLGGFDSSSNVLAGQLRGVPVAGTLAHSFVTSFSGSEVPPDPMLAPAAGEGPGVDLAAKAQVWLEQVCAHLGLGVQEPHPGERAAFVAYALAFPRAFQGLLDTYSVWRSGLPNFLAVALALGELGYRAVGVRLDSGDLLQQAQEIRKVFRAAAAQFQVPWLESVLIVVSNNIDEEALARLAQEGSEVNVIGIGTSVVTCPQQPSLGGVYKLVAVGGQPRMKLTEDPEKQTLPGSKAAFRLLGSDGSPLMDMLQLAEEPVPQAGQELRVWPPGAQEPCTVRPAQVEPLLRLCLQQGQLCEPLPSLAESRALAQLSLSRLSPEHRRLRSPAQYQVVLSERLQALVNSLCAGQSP
Protocol: NADH fluorescence was monitored continuously at 37 °C for 30 min, using a 96-well plate in a Sinergy HT microplate reader (Bio-Tek, Winooski, VT, USA) set at excitation and emission wavelengths of 340 nm and 460 nm, respectively. The slope of the linear fit of fluorescence versus time was used to calculate the NAPRT activity by referring to an NADH standard curve, obtained by plotting the fluorescence of a known amount of NADH versus the nucleotide concentrations. […] These mixtures were optimized to make NadD the rate-limiting enzyme of the ancillary system, i.e., concentrations of the enzyme NadD and the NAMN substrate were chosen to guarantee a linear time course of the fluorescence increase up to 30 min.
The analyzed compounds were dissolved in 100% v/v DMSO. Few compounds were dissolved in water. The compounds were tested at a 0.5 mM concentration. […] The screening was started by using the NADH assay. […] The fluorescence increase was monitored continuously, which allowed us to easily estimate the quality of data and to identify potential artifacts (e.g., arising from compounds precipitation). […] One inhibitor control for each tested compound (compound and no NAPRT), as well as four positive controls (NAPRT and no compound) and four negative controls (no NAPRT and no compound) were included in every reaction plate. The percentage inhibition was calculated relative to the controls as follows: % inhibition=(Si−Ci)/(µp−µn)×100 where Si represents the signal in the presence of the compound; Ci is the signal of the inhibitor control; and µp and µn are the mean values of the signals of the positive and negative controls, respectively.
The IC50 value was determined by plotting the rates versus inhibitor concentration and fitting to the equation: Vi = V0/(1 + [I]/IC50) using GraphPad Prism 7. V0 and Vi represent initial rates in the absence and presence of the inhibitor at concentration [I], respectively.
Ki values were calculated from the straight line deriving from the replotting of the slopes of the reciprocal plot against the concentrations of the inhibitor (secondary plot). In particular, the straight line intersects the x-axis at [I] = −Ki [28].

[4] = molecular target: T1, human recombinant NAPRT; experiment: HPLC assay of NAPRT activity; type: biochemical; set-up: inferred from purification on a HisTrap IMAC column with imidazole elution; made in house; host or cells: E. coli BL21 (D3); conditions: 0.5 mM compound; 0.1 mM NA, 0.4 mM PRPP; HPLC assay (interference with both fluorometric assays)
Protocol: The amount of enzyme was optimized to provide substrate consumption below 20% of the initial concentration after 10 min of incubation at 37 °C. In addition, withdrawals from the reaction mixture at 5 and 10 min were always performed to ensure a linear time frame. The reaction was stopped by acidification with 0.6 M HClO4. After 10 min on ice, samples were clarified by centrifugation for 2 min at 13,000× g. The supernatants were neutralized with 0.8 M K2CO3, frozen at −20 °C for about 20 min, centrifuged at 13,000× g for 5 min, and injected onto a Supelcosil LC-18-S column (5 µm; 250 × 4.6 mm) thermostatted at 8 °C. […] The elution was monitored at 260 nm (Shimadzu SPD-M20A), and the formed NAMN was quantified by referring to an appropriate standard.
The analyzed compounds were dissolved in 100% v/v DMSO. […] The fluorescence increase was monitored continuously, which allowed us to easily estimate the quality of data and to identify potential artifacts (e.g., arising from compounds precipitation). […] The percentage inhibition was calculated relative to the controls as follows: % inhibition=(Si−Ci)/(µp−µn)×100 where Si represents the signal in the presence of the compound; Ci is the signal of the inhibitor control; and µp and µn are the mean values of the signals of the positive and negative controls, respectively.

[5] = molecular target: T1, human recombinant NAPRT; experiment: Resazurin/diaphorase-coupled assay of NAPRT activity; type: biochemical; set-up: inferred from purification on a HisTrap IMAC column with imidazole elution; made in house; host or cells: E. coli BL21 (D3); conditions: 0.5 mM compound; 0.1 mM NA, 0.4 mM PRPP; resazurin/diaphorase-coupled assay (optical interference at NADH wavelength)
Protocol: The NAPRT concentration was 0.004 × 10^−3 U/mL (2 nM). […] The increase in fluorescence due to resorufin formation in the assay was monitored continuously for 30 min, at 590 nm, after excitation at 530 nm, using a 96-well plate in the Sinergy HT microplate reader at 37 °C. […] To determine the NAPRT activity, the first derivative of the recorded fluorescence curve was calculated, and the slope of the corresponding curve was referred to a standard curve obtained by plotting the fluorescence rate recorded in assay mixtures containing known amounts of NAD^+ in the absence of NAPRT, NadD, and NadE versus the dinucleotide concentrations.
The analyzed compounds were dissolved in 100% v/v DMSO. Few compounds were dissolved in water. The compounds were tested at a 0.5 mM concentration. […] The screening was started by using the NADH assay. […] One inhibitor control for each tested compound (compound and no NAPRT), as well as four positive controls (NAPRT and no compound) and four negative controls (no NAPRT and no compound) were included in every reaction plate. The percentage inhibition was calculated relative to the controls as follows: % inhibition=(Si−Ci)/(µp−µn)×100 where Si represents the signal in the presence of the compound; Ci is the signal of the inhibitor control; and µp and µn are the mean values of the signals of the positive and negative controls, respectively.

[6] = substrate: O=C(O)c1cccnc1; experiment: purified protein, by the assay type; conditions: other: kinetics in the absence of the inhibitor; 0.4 mM PRPP; pH 7.5; 37.0 °C
[7] = FK866 dose 3 nM with 200 µM compound
[8] = FK866 dose 10 nM with 200 µM compound
[9] = FK866 dose 30 nM with 200 µM compound
[10] = FK866 dose 100 nM with 200 µM compound
[11] = 0.5 mM compound, 0.1 mM NA, 0.4 mM PRPP, NADH assay
[12] = towards NA, NA 10 to 50 µM at 0.4 mM PRPP, NADH assay

inhibition at 500 µM [3, 11]: ≤ 20%
Molecule: O=C(O)c1cncnc1 [Compound 28, 5-pyrimidine carboxylic acid]

inhibition at 500 µM [3, 11]: 0% | Inhibitory activity against NAPRT (in words) [3]: inactive
Molecule: CC(=O)Nc1ccccc1 [Compound 37, acetanilide]

inhibition at 500 µM [4]: 5%
Molecule: Nc1c(O)cccc1C(=O)O [Compound 21, 3-hydroxy anthranilic acid]

inhibition at 500 µM [3, 11]: 6%
Molecule: O=C(O)c1ccccn1 [Compound 25, 2-picolinic acid]

IC50 [3]: 351 ± 19 µM | Ki [3]: 169 ± 15 µM | inhibition at 500 µM [3, 11]: 58%
Molecule: O=C(O)c1ccccc1O [Compound 17, salicylic acid]
Effect on cell viability in the absence of FK866 ([1]; 200 µM compound, 72 h, no FK866): toxicity | Inhibition Mechanism [3, 12]: noncompetitive inhibition; also recorded: non- competitive

inhibition at 500 µM [3, 11]: 0% | Inhibitory activity against NAPRT (in words) [3]: inactive
Molecule: NC1CCC(C(=O)O)CC1 (stereo not drawn) [Compound 35, 4-aminocyclohexane carboxylic acid]

inhibition at 500 µM [3, 11]: 11%
Molecule: CC(=O)Oc1ccccc1C(=O)O [Compound 18, acetyl salicylic acid]

IC50 [3]: 1370 ± 74 µM | Ki [3]: 513 ± 13 µM | inhibition at 500 µM [3, 11]: 30% | Inhibition Mechanism [3, 12]: mixed inhibitor
Molecule: O=C(O)c1cccnn1 [Compound 15, 3-pyridazine carboxylic acid]

inhibition at 500 µM [3, 11]: ≤ 20%
Molecule: O=C(O)c1ncccn1 [Compound 29, 2-pyrimidine carboxylic acid]

inhibition at 500 µM [3, 11]: 0%
Molecule: O=C(O)Cc1cnccn1 [Compound 13, 2-pyrazine acetic acid]

inhibition at 500 µM [3, 11]: 0%
Molecule: Cc1cnc(C(=O)O)c[n+]1[O-] [Compound 14, Acipimox]

inhibition at 500 µM [3, 11]: 0% | Inhibitory activity against NAPRT (in words) [3]: very poor inhibitors
Molecule: Oc1ncccn1 [Compound 32, 2-hydroxypyrimidine]

inhibition at 500 µM [4]: 5%
Molecule: O=C(O)c1ccccc1N=Nc1ccc(O)cc1 [Compound 22, 2-(4-hydroxyphenylazo) benzoic acid]

inhibition at 500 µM [3, 11]: 0%
Molecule: NC(=O)c1cnccn1 [Compound 12, pyrazinamide]

inhibition at 500 µM [3, 11]: 0%
Molecule: O=C(O)c1ccncc1 [Compound 27, isonicotinic acid]

The next lines start with the molecule.

Molecule: O=C(O)c1cnccn1 [Compound 9, pyrazine-2-carboxylic acid]
Sensitization of cells to FK866 (cell viability in combination) ([1]; 72 h): reduced cell viability when combined with FK866 | Sensitization of cells to FK866 (cell viability in combination) ([1]; 72 h, listed as pyrazine-2-carboxylic acid): sensitize OVCAR-5 cells to the NAMPT inhibitor FK866 | Combination index (CI) [1, 7]: 0.198 | Combination index (CI) [1, 8]: 0.0673 | Combination index (CI) [1, 9]: 0.03276 | Combination index (CI) [1, 10]: 0.01211 | viability at 200 µM [1]: ~80% | Effect on NAD+ levels combined with FK866 [2]: most effective | NAD levels [2]: ~30%

Molecule: O=C(O)c1ccc(Cl)nc1 [Compound 4, 6-chloronicotinic acid]
IC50 [3]: 1260 ± 115 µM | Inhibition Mechanism [3]: 845 ± 69 non-competitive | Ki [3]: 845 ± 69 µM | inhibition at 500 µM [3]: 44%

Molecule: O=C(O)c1ccc(O)nc1 [Compound 8, 6-hydroxynicotinic acid]
inhibition at 500 µM [3]: 0%

Molecule: Nc1ccccc1C(=O)O [Compound 20, anthranilic acid]
inhibition at 500 µM [3]: 5%

Molecule: O=C(O)c1cccc(N2CCOCC2)c1 [Compound 24, 3-morpholinobenzoic acid]
inhibition at 500 µM [5]: 0%

Molecule: Nc1nccnc1C(=O)O [Compound 10, 3-aminopyrazine-2-carboxylic acid]
inhibition at 500 µM [5]: 6%

Molecule: O=C(O)c1cccnc1F [Compound 3, 2-fluoronicotinic acid]
Sensitization of cells to FK866 (cell viability in combination) ([1]; 72 h): did not significantly sensitize cells to FK866 toxicity | IC50 [3]: 351 ± 38 µM | Ki [3]: 149 ± 14 µM | inhibition at 500 µM [3, 11]: 57% | Inhibition Mechanism [3, 12]: non-competitive

Molecule: Nc1ncccc1C(=O)O [Compound 2, 2-aminonicotinic acid]
Sensitization of cells to FK866 (cell viability in combination) ([1]; 72 h): did not significantly sensitize cells to FK866 toxicity | IC50 [3]: 609 ± 69 µM | Ki [3]: 348 ± 36 µM | inhibition at 500 µM [3, 11]: 38% | Inhibition Mechanism [3, 12]: mixed

Molecule: c1cnc(N2CCNCC2)nc1 [Compound 33, 2-(1-piperazinyl)pyrimidine]
inhibition at 500 µM [3, 11]: 0% | Inhibitory activity against NAPRT (in words) [3]: very poor inhibitors

Molecule: O=C(O)c1cccnc1O [Compound 1, 2-hydroxynicotinic acid]
Sensitization of cells to FK866 (cell viability in combination) ([1]; 72 h): reduced cell viability when combined with FK866 | Sensitization of cells to FK866 (cell viability in combination) ([1]; 72 h, listed as 2-hydroxynicotinic acid): sensitize OVCAR-5 cells to the NAMPT inhibitor FK866; also recorded: effective in sensitizing tumor cells to NAMPT inhibitors | Combination index (CI) [1, 7]: 0.5117 | Combination index (CI) [1, 8]: 0.3255 | Combination index (CI) [1, 9]: 0.339 | Combination index (CI) [1, 10]: 0.3592 | viability at 200 µM [1]: ~75% | Effect on NAD+ levels combined with FK866 [2]: most effective | NAD levels [2]: about 15%

Molecule: O=C(O)c1ccccc1 [Compound 19, benzoic acid]
inhibition at 500 µM [3]: 8%

Molecule: O=C(O)c1cccnc1C(=O)O [Compound 7, 2,3-pyridine dicarboxylic acid]
inhibition at 500 µM [3, 11]: 9%

B1: human recombinant NAPRT (Homo sapiens) (protein)
chain: MAAEQDPEARAAARPLLTDLYQATMALGYWRAGRARDAAEFELFFRRCPFGGAFALAAGLRDCVRFLRAFRLRDADVQFLASVLPPDTDPAFFEHLRALDCSEVTVRALPEGSLAFPGVPLLQVSGPLLVVQLLETPLLCLVSYASLVATNAARLRLIAGPEKRLLEMGLRRAQGPDGGLTASTYSYLGGFDSSSNVLAGQLRGVPVAGTLAHSFVTSFSGSEVPPDPMLAPAAGEGPGVDLAAKAQVWLEQVCAHLGLGVQEPHPGERAAFVAYALAFPRAFQGLLDTYSVWRSGLPNFLAVALALGELGYRAVGVRLDSGDLLQQAQEIRKVFRAAAAQFQVPWLESVLIVVSNNIDEEALARLAQEGSEVNVIGIGTSVVTCPQQPSLGGVYKLVAVGGQPRMKLTEDPEKQTLPGSKAAFRLLGSDGSPLMDMLQLAEEPVPQAGQELRVWPPGAQEPCTVRPAQVEPLLRLCLQQGQLCEPLPSLAESRALAQLSLSRLSPEHRRLRSPAQYQVVLSERLQALVNSLCAGQSP
Km [6]: 15 ± 6 µM
